According to patent EP0187057A1, “2-Phenyl-isopropyl-allophanate, preparation and pharmaceutical application” (priority 1984, dated 1986):
Several values for one entry are separate records, joined by “and”; a condition that tells them apart may be missing. Equal entries are not always repeated. Where two headings read alike, the source gives them in different places.

Columns and labels:
[1] = system: crises épileptiformes consécutives à l'électrochoc; experiment: Maximal electroshock producing epileptiform 'grand mal' seizures (1st and 2nd electroshock); assay type: in vivo, lapin
Description: (§1) Propriétés anticonvulsivantes : • On a effectué, pour déterminer ces propriétés anticonvulsivantes, des expérimentations sur le SCS 289 en procédant à des essais de protection : • - chez le lapin soumis à une transélectrification cranienne génératrice de crises épileptiformes de type "grand mal" ou recevant une infusion veineuse de pentétrazol provoquant l'apparition de myoclonies palpébrales; • - chez la souris recevant, par voie sous-cutanée des doses croissantes de pentétrazol entraînant convulsions et mort ou soumise à une transélectrification transcranienne à basse fréquence génératrice de crises psychomotrices.
Ne considérant comme significative, que la protection complète, les traitements pratiqués une heure avant le second électrochoc ont conféré les protection suivantes (sur groupes de dix lapins) :
Si, par ailleurs, on considère la protection contre les crises toniques (hyperextension des pattes postérieures), il apparaît également une synergie particulièrement aux doses associées de 200 mg/kg de produits.

[2] = Acute toxicity by the digestive route, lethality after one week of observation; assay type: in vivo, souris; conditions: mouse, in vivo, po; for mortality at 168 h: read-out: Pourcentage de létalité Souris
Description: (§2) Des doses croissantes de produit (SCS 289) ont été administrées, par voie digestive, sous forme de suspensions gommeuses, sous le volume de 0,50 ml/20 g de poids corporel chez la souris et 0,50 ml/100 g de poids corporel chez le rat (de 500 à 4000 mg/kg avec des intervalles de 500 mg/kg).
(§3) Les animaux ont été maintenus en observation pendant une semaine, tout d'abord dans le laboratoire (avec un chauffage d'appoint) jusqu'au réveil des animaux endormis, puis dans l'unité animale conditionnée et climatisée.
(§4) Le taux de mortalité relevé dans chaque lot de rats et de souris au terme de la semaine d'observation a été le suivant :
(§5) Les valeurs des DL50, calculées par la méthode de Miller et Tainter sont respectivement de : • - 2300 ± 102 m^g/k^g chez la souris; • - 2050 + 220 mg/kg chez le rat.

[3] = system: souris; experiment: as above; assay type: in vivo; conditions: souris, voie digestive, méthode de Miller et Tainter; 10080 min
Description: as §2, §3, §4, §5

[4] = system: crises pentétrazoliques; experiment: Convulsant and lethal effects of subcutaneous pentetrazol (125 mg/kg); assay type: in vivo, souris
Description: as §1
Pour déceler une synergie d'action antagoniste vis-à-vis des effets convulsivants et létaux du pentétrazol injecté par voie sous-cutanée chez la souris à la dose de 125 mg/kg, on a déterminé avec plus de précision la DE50 du SCS 289 et on a recherché si l'association avec le SCS 35 apportait un surcroit appréciable d'activité.
On n'a retenu comme significative que la protection à l'égard des effets létaux observés sur 24 heures.

[5] = system: crises psychomotrices; experiment: Psychomotor seizures induced by low-frequency transcranial electrical stimulation; assay type: in vivo, souris; conditions: for Pourcentage de souris protégées une heure après traitement: groupes de 20 souris
Description: as §1
On a également recherché si le SCS 289 était susceptible de protéger la souris contre le choc psychomoteur induit par une stimulation transcranienne à basse fréquence qui provoque, chez l'animal, un bref comportement de désorientation rappelant les attaques psychomotrices de l'homme.
Vis-à-vis des crises psychomotrices provoquées chez la souris par une stimulation électrique transcranienne à basse fréquence, le SCS 35 apparait plus actif que le SCS 289 : […]

[6] = index thérapeutique absolu, souris

SMILES: CC(C)OC(=O)N(C(N)=O)c1ccccc1 [SCS 289, phényl-2 allophanate d'isopropyle]
- % d'animaux protégés contre les seules crises toniques ([1]; 100 mg/kg, hyperextension tonique des pattes postérieures): 60%
- % d'animaux protégés contre les seules crises toniques ([1]; 200 mg/kg): 50%
- protection contre la forme tonique des convulsions (animals out of ten) ([1]; 200 mg/kg): cinq animaux sur dix
- % d'animaux protégés complètement ([1]; 200 mg/kg, one hour before second electroshock, groups of ten rabbits): 20%
- mortality at 168 h ([2]; 500 mg/kg voie digestive): 0%
- mortality at 168 h ([2]; 1000 mg/kg voie digestive): 0%
- mortality at 168 h ([2]; 1500 mg/kg voie digestive): 0%
- mortality at 168 h ([2]; 2000 mg/kg voie digestive): 20%
- mortality at 168 h ([2]; 2500 mg/kg voie digestive): 40%
- mortality at 168 h ([2]; 3000 mg/kg voie digestive): 100%
- mortality at 168 h ([2]; 3500 mg/kg voie digestive): 100%
- mortality at 168 h ([2]; 4000 mg/kg voie digestive): 100%
- LD50 at 168 h ([2]; souris, voie digestive, méthode de Miller et Tainter, read-out: DL50): 2300 ± 102 mg/kg
- DL50 [3]: 2300 + 102 mg/kg
- % de protection vis-à-vis de la létalité pentétrazolique ([4]; 10 mg/kg): 20%
- % de létalité en 24 h ([4]; 10 mg/kg 1 h avant pentétrazol 125 mg/kg s.c., untreated 100): 80%
- % de protection vis-à-vis de la létalité pentétrazolique ([4]; 20 mg/kg): 70%
- % de létalité en 24 h ([4]; 20 mg/kg 1 h avant pentétrazol): 30%
- % de protection vis-à-vis de la létalité pentétrazolique ([4]; 30 mg/kg): 100%
- % de létalité en 24 h ([4]; 30 mg/kg 1 h avant pentétrazol): 0%
- % de protection vis-à-vis de la létalité pentétrazolique ([4]; 40 mg/kg): 100%
- % de létalité en 24 h ([4]; 40 mg/kg 1 h avant pentétrazol): 0%
- % de protection vis-à-vis de la létalité pentétrazolique ([4]; 50 mg/kg): 100%
- % de létalité en 24 h ([4]; 50 mg/kg 1 h avant pentétrazol): 0%
- ED50 ([4]; Mus musculus, sc, 24 h, souris, read-out: DE50 à l'égard des crises pentétrazoliques maximales et létales): 15 mg/kg
- DL50/DE50 /pentétrazol [4, 6]: 153
- Pourcentage de souris protégées une heure après traitement ([5]; 5 mg/kg voie digestive): 45%
- Pourcentage de souris protégées une heure après traitement ([5]; 10 mg/kg voie digestive): 50%
- Pourcentage de souris protégées une heure après traitement ([5]; 25 mg/kg voie digestive): 95%
- Pourcentage de souris protégées une heure après traitement ([5]; 50 mg/kg voie digestive): 100%
- Pourcentage de souris protégées une heure après traitement ([5]; 2,5 mg/kg voie digestive): 35%
- ED50 ([5]; Mus musculus, po, souris, voie digestive, read-out: DE50 capable de protéger 50 % des animaux contre les crises psychomotrices): 4.5 mg/kg
- activité par rapport au valproate de sodium (comparaison des DE50) ([5]; crises psychomotrices, souris): 26 fois
- activité par rapport à la phénacétamide (comparaison des DE50) ([5]; crises psychomotrices, souris): trois fois plus actif
- DL50/DE50 / Crises psycho-motrices [5, 6]: 511
- DE50 psychodépressive / DE50 anticonvulsivante / Crises psycho-motrices ([5]; index thérapeutique relatif, psychodépressive = mean of DE50 for agilité, force musculaire, motricité, curiosité): 16
- DE50 capable de protéger 50 % des animaux contre les crises psychomotrices ([5]; souris, voie digestive): 4,5 mg/kg and ~5,5 mg/kg
